# Activity calls are given as the source filed them. The rule behind the calls is not given here.
# Legend:
# [1] = target: T1, Protein cereblon/Wee1-like protein kinase (Homo sapiens) (UniProt P30291+Q96SW2); test: PROTAC activity at CRBN/Wee1 in human HeLa S3 cells assessed as induction of Wee1 degradation by measuring reduction in phosphorylation of CDK1 at Tyr15 residue at 1 uM measured after 24 hrs by Western blot analysis relative to control; assay type: cell-based; design: scale not given: the % may be the effect or the level left
# [2] = target: T1, Protein cereblon/Wee1-like protein kinase (Homo sapiens); test: PROTAC activity at CRBN/Wee1 in human HeLa S3 cells assessed as induction of Wee1 degradation at 1 uM measured after 24 hrs by Western blot analysis relative to control; assay type: cell-based
# [3] = target: T1, Protein cereblon/Wee1-like protein kinase (Homo sapiens); test: PROTAC activity at CRBN/Wee1 in human HeLa S3 cells assessed as induction of Wee1 degradation at 1 uM measured after 4 hrs by Western blot analysis; assay type: cell-based
# [4] = target: T1, Protein cereblon/Wee1-like protein kinase (Homo sapiens); test: PROTAC activity at CRBN/Wee1 in human HeLa S3 cells assessed as induction of Wee1 degradation at 30 to 10000 nM measured after 4 hrs by Western blot analysis; assay type: cell-based; conditions: dose 30-10000 nM
# [5] = target: T1, Protein cereblon/Wee1-like protein kinase (Homo sapiens); test: PROTAC activity at CRBN/Wee1 in human HeLa S3 cells assessed as induction of Wee1 degradation by measuring reduction in phosphorylation of CDK1 at Tyr15 residue at 100 to 10000 nM measured after 4 hrs by Western blot analysis; assay type: cell-based; conditions: dose 100-10000 nM
# [6] = target: T2, von Hippel-Lindau disease tumor suppressor/Wee1-like protein kinase (Homo sapiens) (UniProt P30291+P40337); test: PROTAC activity at VHL/Wee1 in human HeLa S3 cells assessed as induction of Wee1 degradation at 1 uM measured after 4 hrs by Western blot analysis; assay type: cell-based
# [7] = target: T2, von Hippel-Lindau disease tumor suppressor/Wee1-like protein kinase (Homo sapiens); test: PROTAC activity at VHL/Wee1 in human HeLa S3 cells assessed as induction of Wee1 degradation by measuring reduction in phosphorylation of CDK1 at Tyr15 residue at 1 uM measured after 24 hrs by Western blot analysis relative to control; assay type: cell-based; design: scale not given: the % may be the effect or the level left
# [8] = target: T2, von Hippel-Lindau disease tumor suppressor/Wee1-like protein kinase (Homo sapiens); test: PROTAC activity at VHL/Wee1 in human HeLa S3 cells assessed as induction of Wee1 degradation at 1 uM measured after 24 hrs by Western blot analysis relative to control; assay type: cell-based
# [9] = system: LNCaP; test: Antiproliferative activity against human LNCaP cells assessed as inhibition of cell growth measured after 72 hrs by MTS assay; assay type: functional, cell-based
# [10] = system: BT-549; test: Antiproliferative activity against human BT-549 cells assessed as inhibition of cell growth measured after 72 hrs by MTS assay; assay type: functional, cell-based; conditions: BT-549, 72 h
# [11] = system: PC-3; test: Antiproliferative activity against human PC-3 cells assessed as inhibition of cell growth measured after 72 hrs by MTS assay; assay type: functional, cell-based; conditions: PC-3, 72 h
# [12] = system: MCF7; test: Antiproliferative activity against human MCF7 cells assessed as inhibition of cell growth measured after 72 hrs by MTS assay; assay type: functional, cell-based; conditions: MCF7, 72 h
# [13] = target: T2, von Hippel-Lindau disease tumor suppressor/Wee1-like protein kinase (Homo sapiens); test: PROTAC activity at VHL/Wee1 in human HeLa S3 cells assessed as induction of Wee1 degradation by measuring reduction in CDK1 phosphorylation at Tyr15 residue at above 1 uM measured after 24 to 48 hrs by Western blot analysis; assay type: cell-based; conditions: time 24-48 hrs
# [14] = target: T2, von Hippel-Lindau disease tumor suppressor/Wee1-like protein kinase (Homo sapiens); test: PROTAC activity at VHL/Wee1 in human HeLa S3 cells assessed as induction of Wee1 degradation at 1 uM measured after 24 to 48 hrs by Western blot analysis; assay type: cell-based; conditions: time 24-48 hrs
structure (smiles),measurement,setting,value
C=CCn1c(=O)c2cnc(Nc3ccc(N4CCN(CCCC(=O)NCCOCCOCC(=O)NCCNc5cccc6c5C(=O)N(C5CCC(=O)NC5=O)C6=O)CC4)cc3)nc2n1-c1cccc(C(C)(C)O)n1 (stereo unspecified),Activity,[1],80%
same,Activity,[2],81%
same,Activity,[3],Active
C=CCn1c(=O)c2cnc(Nc3ccc(N4CCN(CCCC(=O)NCCOCCNc5cccc6c5C(=O)N(C5CCC(=O)NC5=O)C6=O)CC4)cc3)nc2n1-c1cccc(C(C)(C)O)n1 (stereo unspecified),Activity,[1],41%
same,Activity,[2],38%
same,Activity,[4],Active
same,Activity,[5],Active
C=CCn1c(=O)c2cnc(Nc3ccc(N4CCN(CCCC(=O)NCCOCCOCCOCCOCCC(=O)N[C@H](C(=O)N5C[C@H](O)C[C@H]5C(=O)NCc5ccc(-c6scnc6C)cc5)C(C)(C)C)CC4)cc3)nc2n1-c1cccc(C(C)(C)O)n1,Activity,[6],Active
same,Activity,[7],80%
same,Activity,[8],108%
C=CCn1c(=O)c2cnc(Nc3ccc(N4CCN(CCCC(=O)N[C@H](C(=O)N5C[C@@H](O)C[C@H]5C(=O)NCc5ccc(-c6scnc6C)cc5)C(C)(C)C)CC4)cc3)nc2n1-c1cccc(C(C)(C)O)n1,IC50,[9],3.46 µM
same,IC50,[10],1.7 µM
same,IC50,[11],8.7 µM
same,IC50,[12],3.3 µM
same,Activity,[13],Active
same,Activity,[14],Active
